PubChem BioAssay AID1259411 (Chemical Carcinogenesis Research Information System (CCRIS), 2018)
Activity calls are given as the source filed them. No rule for the calls is given here.

System: rodent carcinogenicity bioassays, tumor incidence
Experiment: CCRIS carcinogenicity studies
Settings: Dose: 0, Dose: 0
How it was run: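 Archive of carcinogenicity, mutagenicity, tumor promotion and tumor inhibition results drawn from journals, NCI reports and other sources, expert-reviewed; covers 1985-2011 and is no longer updated.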

O=C1OC(=O)c2ccccc21
carcinogen call (Species: MOUSE, Strain/Sex: B6C3F1/FEMALE, Route: ORAL, 12019, 24038 PPM IN DIET, TWA (STUDY DURATION: 104 WK), 12019, 24038 PPM IN DIET, TWA (STUDY DURATION: 104 WK)): inactive; negative | carcinogen call (Species: MOUSE, Strain/Sex: B6C3F1/MALE, Route: ORAL, 16346, 32692 PPM IN DIET, TWA (STUDY DURATION: 104 WK), 16346, 32692 PPM IN DIET, TWA (STUDY DURATION: 104 WK)): inactive; negative | carcinogen call (Species: RAT, Strain/Sex: F344/FEMALE, Route: ORAL, 7500, 15000 PPM IN DIET FOR 105 WK, 7500, 15000 PPM IN DIET FOR 105 WK): inactive; negative | carcinogen call (Species: RAT, Strain/Sex: F344/MALE, Route: ORAL, 7500, 15000 PPM IN DIET FOR 105 WK, 7500, 15000 PPM IN DIET FOR 105 WK): inactive; negative

FC(Cl)(Cl)Cl
carcinogen call (Species: MOUSE, Strain/Sex: B6C3F1/FEMALE, Route: GAVAGE, 1962, 3925 MG/KG, TWA, 1962, 3925 MG/KG, TWA): inactive; negative | carcinogen call (Species: MOUSE, Strain/Sex: B6C3F1/MALE, Route: GAVAGE, 1962, 3925 MG/KG, TWA, 1962, 3925 MG/KG, TWA): inactive; negative | carcinogen call (Species: MOUSE, Strain/Sex: SWISS/FEMALE, Route: INHALATION, 1000, 5000 PPM 4 HR/D 5 D/WK FOR 78 WK (STUDY DURATION: LIFETIME), 1000, 5000 PPM 4 HR/D 5 D/WK FOR 78 WK (STUDY DURATION: LIFETIME)): inactive; negative | carcinogen call (Species: MOUSE, Strain/Sex: SWISS/MALE, Route: INHALATION, 1000, 5000 PPM 4 HR/D 5 D/WK FOR 78 WK (STUDY DURATION: LIFETIME), 1000, 5000 PPM 4 HR/D 5 D/WK FOR 78 WK (STUDY DURATION: LIFETIME)): inactive; negative | carcinogen call (Species: RAT, Strain/Sex: SPRAGUE-DAWLEY/FEMALE, Route: INHALATION, 1000, 5000 PPM 4 HR/D 5 D/WK FOR 104 WK (STUDY DURATION: LIFETIME), 1000, 5000 PPM 4 HR/D 5 D/WK FOR 104 WK (STUDY DURATION: LIFETIME)): inactive; negative | carcinogen call (Species: RAT, Strain/Sex: SPRAGUE-DAWLEY/FEMALE, Route: INHALATION, 1000, 5000 PPM IN AIR 4 HR/D 5 D/WK FOR 104 WK (STUDY DURATION: LIFETIME), 1000, 5000 PPM IN AIR 4 HR/D 5 D/WK FOR 104 WK (STUDY DURATION: LIFETIME), Tumor Site: Type of Lesion: [BRAIN WAS ONLY SITE EVALUATED]): inactive; negative | carcinogen call (Species: RAT, Strain/Sex: SPRAGUE-DAWLEY/MALE, Route: INHALATION, 1000, 5000 PPM 4 HR/D 5 D/WK FOR 104 WK (STUDY DURATION: LIFETIME), 1000, 5000 PPM 4 HR/D 5 D/WK FOR 104 WK (STUDY DURATION: LIFETIME)): inactive; negative | carcinogen call (Species: RAT, Strain/Sex: SPRAGUE-DAWLEY/MALE, Route: INHALATION, 1000, 5000 PPM IN AIR 4 HR/D 5 D/WK FOR 104 WK (STUDY DURATION: LIFETIME), 1000, 5000 PPM IN AIR 4 HR/D 5 D/WK FOR 104 WK (STUDY DURATION: LIFETIME), Tumor Site: Type of Lesion: [BRAIN WAS ONLY SITE EVALUATED]): inactive; negative

OCCO
carcinogen call (Species: MOUSE, Strain/Sex: B6C3F1/FEMALE, Route: ORAL, 12500, 25000, 50000 PPM IN DIET FOR 721 D (STUDY DURATION: 105 WK), 12500, 25000, 50000 PPM IN DIET FOR 721 D (STUDY DURATION: 105 WK)): inactive; negative | carcinogen call (Species: MOUSE, Strain/Sex: B6C3F1/MALE, Route: ORAL, 6250, 12500, 25000 PPM IN DIET FOR 721 D (STUDY DURATION: 105 WK), 6250, 12500, 25000 PPM IN DIET FOR 721 D (STUDY DURATION: 105 WK)): inactive; negative

C=CC(O)c1ccc(OC)cc1 (configuration not stated)
carcinogen call (Species: MOUSE, Strain/Sex: CD-1/MALE, Route: SUBCUTANEOUS, 0.17 UMOL IN 0.025 ML TRIOCTANOIN WITHIN 24 H AFTER BIRTH THEN 0, 0.47 UMOL IN 0.05 ML TRIOCTANOIN ON D 8, 0, 0.95 UM, 0.17 UMOL IN 0.025 ML TRIOCTANOIN WITHIN 24 H AFTER BIRTH THEN 0, 0.47 UMOL IN 0.05 ML TRIOCTANOIN ON D 8, 0, 0.95 µM, Tumor Site: Type of Lesion: LIVER: HEPATOCELLULAR CARCINOMA): active; positive

ClCC(Cl)Cl
carcinogen call (Species: MOUSE, Strain/Sex: B6C3F1/FEMALE, Route: GAVAGE, 195, 390 MG/KG/D, TWA, 195, 390 MG/KG/D, TWA, Tumor Site: Type of Lesion: LIVER: HEPATOCELLULAR CARCINOMA): active; positive | carcinogen call (Species: MOUSE, Strain/Sex: B6C3F1/MALE, Route: GAVAGE, 195, 390 MG/KG/D, TWA, 195, 390 MG/KG/D, TWA, Tumor Site: Type of Lesion: LIVER: HEPATOCELLULAR CARCINOMA): active; positive | carcinogen call (Species: RAT, Strain/Sex: OSBORNE-MENDEL/FEMALE, Route: GAVAGE, 46, 92 MG/KG/D, TWA, 46, 92 MG/KG/D, TWA): inactive; negative | carcinogen call (Species: RAT, Strain/Sex: OSBORNE-MENDEL/MALE, Route: GAVAGE, 46, 92 MG/KG/D, TWA, 46, 92 MG/KG/D, TWA): inactive; negative

COC(=O)[C@H]1[C@H]2C[C@@H]3c4[nH]c5cc(OC)ccc5c4CCN3C[C@H]2C[C@@H](OC(=O)c2cc(OC)c(OC)c(OC)c2)[C@@H]1OC
carcinogen call (Species: MOUSE, Strain/Sex: B6C3F1/FEMALE, Route: ORAL, 5, 10 PPM IN DIET FOR 103 WK (STUDY DURATION: 105 WK), 5, 10 PPM IN DIET FOR 103 WK (STUDY DURATION: 105 WK), Tumor Site: Type of Lesion: MAMMARY GLAND: MALIGNANT TUMOR): active; positive | carcinogen call (Species: MOUSE, Strain/Sex: B6C3F1/MALE, Route: ORAL, 5, 10 PPM IN DIET FOR 103 WK (STUDY DURATION: 105 WK), 5, 10 PPM IN DIET FOR 103 WK (STUDY DURATION: 105 WK), Tumor Site: Type of Lesion: SEMINAL VESICLES: CARCINOMA): active; positive | carcinogen call (Species: RAT, Strain/Sex: F344/FEMALE, Route: ORAL, 5, 10 PPM IN DIET FOR 103 WK (STUDY DURATION: 105 WK), 5, 10 PPM IN DIET FOR 103 WK (STUDY DURATION: 105 WK)): inactive; negative | carcinogen call (Species: RAT, Strain/Sex: F344/MALE, Route: ORAL, 5, 10 PPM IN DIET FOR 103 WK (STUDY DURATION: 105 WK), 5, 10 PPM IN DIET FOR 103 WK (STUDY DURATION: 105 WK), Tumor Site: Type of Lesion: ADRENAL GLAND: MALIGNANT PHEOCHROMOCYTOMA OR PHEOCHROMOCYTOMA): active; positive

CCN(Cc1cccc(S(=O)(=O)O)c1)c1ccc(C(=C2C=CC(=[N+](CC)Cc3cccc(S(=O)(=O)O)c3)C=C2)c2ccc(O)cc2S(=O)(=O)[O-])cc1
carcinogen call (Species: MOUSE, Strain/Sex: SWISS-WEBSTER/FEMALE, Route: DERMAL, 1% IN 0.1 ML DISTILLED WATER 1/WK FOR 19.5 MO (STUDY DURATION: 19.5 MO)): inactive; negative | carcinogen call (Species: MOUSE, Strain/Sex: SWISS-WEBSTER/MALE, Route: DERMAL, 1% IN 0.1 ML DISTILLED WATER 1/WK FOR 19.5 MO (STUDY DURATION: 19.5 MO)): inactive; negative | carcinogen call (Species: RAT, Strain/Sex: FISCHER/FEMALE, Route: SUBCUTANEOUS, 0.5 ML OF 3% SOLUTION IN DISTILLED WATER (0; 15 MG) 2/WK FOR 26 WK THEN 1/WK FOR 22 WK (STUDY DURATION: 11 MO), 0.5 ML OF 3% SOLUTION IN DISTILLED WATER (0; 15 MG) 2/WK FOR 26 WK THEN 1/WK FOR 22 WK (STUDY DURATION: 11 MO), Tumor Site: Type of Lesion: INJECTION SITE: FIBROSARCOMA): active; positive | carcinogen call (Species: RAT, Strain/Sex: FISCHER/FEMALE, Route: SUBCUTANEOUS, 0.5 ML OF 6% SOLUTION IN DISTILLED WATER (0; 30 MG) 2/WK FOR 19 WK THEN 3% SOLUTION (0; 15 MG) 2/WK FOR 9 WK FOLLOWED, 0.5 ML OF 6% SOLUTION IN DISTILLED WATER (0; 30 MG) 2/WK FOR 19 WK THEN 3% SOLUTION (0; 15 MG) 2/WK FOR 9 WK FOLLOWED, Tumor Site: Type of Lesion: INJECTION SITE: FIBROSARCOMA): active; positive
